Reference: patent publication US5439899A, “Cosalane and related compounds having activity against aids and aids-related infections” (priority 1993, dated 1995)
Where “and” joins values, the source holds several entries; their conditions need not be identical. Equal entries are not always repeated. Where two headings read alike, the source gives them in different places.

Tests used:
HIV = assay: NCI in vitro anti-HIV screen (XTT soluble-formazan assay, protection of HIV-infected CEM cells); format: cell-based; details: for EC50: approximate values, one value per run; for TI50 (IC/EC), therapeutic index: ratio IC50/EC50 of the same run; for anti-HIV effect (statement): NCI anti-HIV screen, in vitro, CEM cells
Text: The National Cancer Institute's procedure for testing for agents active against Human Immunodeficiency Virus (HIV) (Weislow, O. W. et al, "New soluble-formazan assay for HIV-1 cytopathic effects: application to high-flux screening of synthetic and natural products for AIDS-antiviral activity," J. Natl. Cancer Inst., 81, 577-586, 1989) is designed to detect agents acting at any stage of the virus reproductive cycle. The assay includes the killing of T4 lymphocytes by HIV. Pursuant to the test, small amounts of HIV are added to cells, and a complete cycle of virus reproduction is necessary to obtain the required cell killing. Agents that interact with virions, cells, or virus gene-products to interfere with viral activities will protect cells from cytolysis. The system is thus designed to detect anti-HIV activity. However, compounds that degenerate or are rapidly metabolized in the culture conditions may not show activity in this screen. All tests are compared with at least one positive (e.g., AZT-treated) control done at the same time under identical conditions.
(§1) 1. The candidate agent is dissolved in dimethyl sulfoxide (unless otherwise instructed), then diluted 1:200 in cell culture medium. Further dilutions (half-log10) are prepared before adding to 96-well microtiter plates.
(§2) 2. T4 lymphocytes (CEM cell line) are exposed to HIV at a virus-to-cell ratio of approximately 0.05 and are plated along with non-infected control cells into drug-containing wells or wells with medium alone.
(§3) 3. Cultures are incubated at 37° in a 5% carbon dioxide atmosphere for 6 days.
(§4) 4. The tetrazolium salt, XTT, is added to all wells, and cultures are incubated to allow formazan color development by viable cells.
(§5) 5. […] are analyzed spectrophotometrically to quantitate formazan production and, in addition, are viewed microscopically for detection of viable cells and confirmation of protective activity.
(§6) 6. Drug-treated virus-infected cells are compared with drug-treated non-infected cells and with other appropriate controls (untreated infected and untreated non-infected cells, drug-containing wells without cells, etc.) on the same plate.
(§7) 7. Data are reviewed in comparison with other tests performed at the same time, and a determination about activity is made.
Approximate values for 50% effective concentration (EC50) (protection in infected cells), 50% inhibitory concentration (IC50) and the therapeutic index (IC50 /EC50) have been calculated for each test and are provided in the tables of each Example.
Examples 1, 6 and 8 compounds, respectively, against the measured test values expressed as a percentage of the uninfected, untreated control values. The solid line depicts the percentage of surviving HIV-infected cells treated with sample (at the indicated concentration) relative to uninfected, untreated controls. The solid line expresses the in vitro anti-HIV activity of the compound of the tested compound. The dashed line depicts the percentage of surviving uninfected cells treated with the compound of the Example relative to the same uninfected, untreated controls. The dashed line expresses the in vitro growth inhibitory properties of the compound of the Example. The viral cytopathic effect of a compound of each Example is indicated by a combination of dashes and dots. […] Survival values of this parameter less then 50% are considered acceptable in the current protocol.

[1] = system: T4 lymphocytes (CEM cell line); assay: NCI in vitro anti-HIV screen, growth inhibition of uninfected CEM cells (XTT); format: cell-based; details: for IC50: read-out: IC50 (50% inhibitory concentration); for cytotoxicity (statement): NCI anti-HIV screen, CEM cells
Procedure: The assay includes the killing of T4 lymphocytes by HIV. Pursuant to the test, small amounts of HIV are added to cells, and a complete cycle of virus reproduction is necessary to obtain the required cell killing. Agents that interact with virions, cells, or virus gene-products to interfere with viral activities will protect cells from cytolysis. The system is thus designed to detect anti-HIV activity. However, compounds that degenerate or are rapidly metabolized in the culture conditions may not show activity in this screen. All tests are compared with at least one positive (e.g., AZT-treated) control done at the same time under identical conditions.
as §1, §2, §3, §4, §5, §6, §7
Survival values of this parameter less then 50% are considered acceptable in the current protocol.

[2] = HIV-infected CEM cells, 6 days, XTT, read-out: EC50 (50% effective concentration, protection in infected cells)
[3] = drug-treated uninfected CEM cells, 6 days, XTT, approximate values, one value per run
[4] = Homo sapiens, CCRF-CEM, 144 h, drug-treated uninfected CEM cells, 6 days, XTT, approximate values, one value per run
[5] = Human immunodeficiency virus 1, CCRF-CEM, 144 h, HIV-infected CEM cells, 6 days, XTT, read-out: EC50 (50% effective concentration, protection in infected cells)
[6] = Human immunodeficiency virus 1, CCRF-CEM, 144 h, read-out: EC50 (50% effective concentration, protection in infected cells), HIV-infected CEM cells, 6 days, XTT

| Compound | TI50 (IC/EC), therapeutic index (HIV) | IC50 [1, 3] | IC50 [1, 4] [µM] | EC50 (HIV; [5]) [µM] | further results |
| --- | --- | --- | --- | --- | --- |
| CCCCCCCCCCCCCCCCC(c1ccc(O)c(C(=O)O)c1)c1ccc(O)c(C(=O)O)c1 [Formula XXII] | 1.56 × 10^0 and 3.06 × 10^+1 and 3.05 × 10^+1 | 51.4 µM and 119 µM | – | – | EC50 (HIV; [2]): 3.9 µM |
| CCCCCCCCCCCCCCCC=C(c1cc(Cl)c(OC)c(C(=O)O)c1)c1cc(Cl)c(OC)c(C(=O)O)c1 [Formula XXIV, 1,1-di(3'-carboxy-5'-chloro-4'-methoxy)phenyl-1-heptadecene] | – | 25.9 µM | 26.6 | – | cytotoxicity (statement) [1]: cytotoxic |
| COc1c(Cl)cc(C(=CCC[C@H]2CC[C@@]3(C)[C@@H](CC[C@@H]4[C@@H]3CC[C@]3(C)[C@@H]([C@H](C)CCCC(C)C)CC[C@@H]43)C2)c2cc(Cl)c(OC)c(C(=O)O)c2)cc1C(=O)O [Formula V] | – | – | – | – | anti-HIV effect (statement) (HIV): greatest effect on inhibiting HIV-infected cells, while having a lesser effect on uninfected cells; IC50 ([1]; Homo sapiens, CCRF-CEM, 144 h): > 300 µM |
| COc1c(Cl)cc(C(=Cc2c(F)c(F)c(F)c(F)c2F)c2cc(Cl)c(OC)c(C(=O)O)c2)cc1C(=O)O [Formula XXV] | – | 552 µM and 412 µM | 434 | 140 | EC50 (HIV; [2]): 102 µM and 176 µM |
| CCCCCC=C(c1cc(Cl)c(OC)c(C(N)=O)c1)c1cc(Cl)c(OC)c(C(N)=O)c1 [Formula XVI, 1,1-di(3'-carbamoyl-5'-chloro-4'-methoxy)phenyl-1-heptene] | – | 17.2 µM and 16.3 µM and 13.4 µM | 17.4 | – | – |
| CC(C)CCC[C@@H](C)[C@H]1CC[C@H]2[C@@H]3CC[C@H]4C[C@@H](CCCC(c5cc(Cl)c(O)c(C(=O)O)c5)c5cc(Cl)c(O)c(C(=O)O)c5)CC[C@]4(C)[C@H]3CC[C@]12C [Formula VI, (5α)-3β-[4,4-Di(3'-ammoniumcarboxy-5'-chloro-4'-hydroxy)phenyl-1-butyl]cholestane] | > 1.80 × 10^+1 and > 2.10 × 10^+1 and > 1.30 × 10^+1 and > 1.20 × 10^+1 | – | – | – | EC50 (HIV; [6]): 17 µM; anti-HIV effect (statement) (HIV): greatest effect on inhibiting HIV-infected cells, while having a lesser effect on uninfected cells; EC50 (HIV; read-out: EC50 (50% effective concentration, protection in infected cells), HIV-infected CEM cells, 6 days, XTT): 15 µM and 23 µM and 25 µM; IC50 ([1]; Homo sapiens, CCRF-CEM, 144 h): > 310 µM |
| CCCCCCCCCCC(c1ccc(O)c(C(=O)O)c1)c1ccc(O)c(C(=O)O)c1 [Formula XVIII] | 2.55 × 10^0 | – | 84.6 | 33.2 | – |
| COC(=O)c1cc(C(=CCCBr)c2cc(Cl)c(OC)c(C(=O)OC)c2)cc(Cl)c1OC [Formula XIX, 4-bromo-1,1-di(3'-carbomethoxy-5'-chloro4'-methoxy)phenyl-1-butene] | 2.62 × 10^0 and 1.96 × 10^0 | 15.2 µM | 21.5 | 8.19 | EC50 (HIV; [2]): 7.73 µM |
| CCCCCCCCCCCCCCCC=C(c1cc(Cl)c(O)c(C(=O)O)c1)c1cc(Cl)c(O)c(C(=O)O)c1 [Formula XIV, 1,1-di(3'-ammoniumcarboxy-5'-chloro-4'-hydroxy)phenyl-1-heptadecene] | > 7.57 × 10^0 | – | > 35 | 4.62 | – |
| CCCCCCCCCCCCCCCCCCCCCCCCCCCCCC=C(c1cc(Cl)c(O)c(C(=O)O)c1)c1cc(Cl)c(O)c(C(=O)O)c1 [Formula XI, 1,1-di(3'-ammoniumcarboxy-5'-chloro-4'hydroxy) phenyl-1-untriacontene] | > 1.67 × 10^+1 and > 1.36 × 10^+4 and > 1.90 × 10^+1 and > 2.40 × 10^+1 | > 220 µM | > 222 | 13.3 | EC50 (HIV; [2]): 16.3 µM and 11 µM and 9.3 µM; anti-HIV effect (statement) (HIV): greatest effect on inhibiting HIV-infected cells, while having a lesser effect on uninfected cells |
| CCCCCCCCCC=C(c1cc(Cl)c(O)c(C(=O)O)c1)c1cc(Cl)c(O)c(C(=O)O)c1 [Formula XIII, 1,1-di(3'-ammoniumcarboxy-5'-chloro-4'-hydroxy)phenyl-1-undecene] | > 1.32 × 10^0 | – | > 49.1 | 37.3 | – |
| O=C(O)c1cc(C(=CCCBr)c2cc(Cl)c(O)c(C(=O)O)c2)cc(Cl)c1O [Formula XVII] | 1.58 × 10^0 and 1.93 × 10^0 and 1.50 × 10^0 and 2.71 × 10^0 | 237 µM and 181 µM and 258 µM | 214 | 136 | EC50 (HIV; [2]): 122 µM and 121 µM and 95.1 µM |
| CCCCCC=C(c1cc(Br)c(OC)c(C(=O)OC)c1)c1cc(Br)c(OC)c(C(=O)OC)c1 [Formula XII, 1,1-di(5'-bromo-3'-carbomethoxy-4'-methoxy)phenyl-1-heptene] | – | – | > 8.95 | – | anti-HIV effect (statement) (HIV): greatest effect on inhibiting HIV-infected cells, while having a lesser effect on uninfected cells; anti-HIV effect (statement) (HIV; listed as structure XII): most effective compounds studied in terms of prevention of the cytopathic effect of HIV in CEM lymphocytes |
| C[C@H](CCC=C(c1cc(Cl)c(O)c(C(=O)O)c1)c1cc(Cl)c(O)c(C(=O)O)c1)[C@H]1CC[C@H]2[C@@H]3CC[C@@H]4CC(F)(F)CC[C@]4(C)[C@H]3CC[C@]12C [Formula X, (5β)-3,3-difluoro-17-[5,5-di(3-ammoniumcarboxy-5-chloro-4-hydroxy)phenyl-1-methyl-4-pentenyl]androstane] | 1.80 × 10^0 | – | 41 | – | EC50 (HIV; [6]): 24 µM |
| CCCCCCCCCC=C(c1cc(Br)c(O)c(C(=O)O)c1)c1cc(Br)c(O)c(C(=O)O)c1 [Formula XX, 1,1-di(3'-ammoniumcarboxy-5'-bromo-4'-hydroxy)phenyl-1-undecene] | > 3.44 × 10^0 | – | > 191 | 55.5 | – |
| CCCCCC=C(c1cc(Br)cc(C(=O)O)c1OC)c1cc(Br)cc(C(=O)O)c1OC [Formula XXI] | 1.80 × 10^0 and 3.52 × 10^0 | 244 µM | 175 | 97.1 | EC50 (HIV; [2]): 69.3 µM |
| CCCCCC=C(c1cc(Cl)c(OC)c(C(=O)OC)c1)c1cc(Cl)c(OC)c(C(=O)OC)c1 [Formula XXVI, di(3'-carbomethoxy-5'-chloro-4'-methoxy)phenyl-1-heptene] | – | > 28.2 µM | > 29.1 | – | – |
| CCCCCC=C(c1cc(Br)cc(C(=O)O)c1O)c1cc(Br)cc(C(=O)O)c1O [Formula XV] | > 1.43 × 10^0 | – | > 21.8 | 15.3 | – |
| CCCCCCCCCC=C(c1cc(Cl)c(OC)c(C(=O)O)c1)c1cc(Cl)c(OC)c(C(=O)O)c1 [Formula XXVII, 1,1-di(3'-ammoniumcarboxy-5'-chloro-4'methoxy) phenyl-1-undecene] | – | 166 µM and 169 µM | 149 | – | – |
| (5α)-3β-[4,4-di(5'-bromo-4'-methoxy-3'-methoxycarbonyl)phenyl-1-buten-3-yl]cholestane [Formula VII] | – | > 280 µM | – | – | – |
| CCCCCCCCCC=C(c1cc(Br)cc(C(=O)O)c1OC)c1cc(Br)cc(C(=O)O)c1OC [Formula XXIII, 1,1-[di-(3'-ammoniumcarboxy-5'-bromo-2'methoxy)phenyl]-1-undecene] | – | 79.5 µM and 68.3 µM and 69.8 µM | 88.9 | – | cytotoxicity (statement) [1]: cytotoxic |
| CC(CCC=C(c1cc(Cl)c(O)c(C(=O)O)c1)c1cc(Cl)c(O)c(C(=O)O)c1)C1CC[C@H]2[C@@H]3CC[C@H]4CCCC[C@]4(C)[C@H]3CC[C@]12C (stereo partly shown) [Formula IX] | – | > 59 µM and > 69 µM and 79 µM | – | – | – |
